{"source": "patent US11331387B2", "about": "“Self-assembled drug-loading system and preparation method therefor” (SHANGHAI SELECTION BIOSCIENCE LLC., priority 2016, dated 2022)", "key": {"[1]": {"test_system": "BCap37 human breast cancer cell line tumor", "assay": "tumor inhibition experiment in tumor-bearing nude mice, with and without irradiation", "assay_type": "in vivo", "description": "After the tumor size was grown to about 100 mm^3 (9 days after inoculation), the tumor-bearing nude mice were randomly divided into 7 groups, 5 in each group. One group was injected with PBS as blank control, and the other six administration groups were categorized as the ICG small molecule group without irradiation, ICG small molecule group plus irradiation, ICG/SN38 nanoparticle group, ICG/SN38 nanoparticle group plus irradiation, ICG/PTX aqueous solution group, and ICG/PTX aqueous solution group plus irradiation, respectively. The mice were injected via the tail vein at a dose of calculated ICG concentration at 10 mg/kg, and were administered once every other day for 2 times. The tumor size was recorded until the end of the experiment. The therapeutic effect was evaluated by comparing the treatment group with the control group. The tumor inhibition rate (IR) was calculated by the following formula: IR=100%×(mean tumor weight of the control group−mean tumor weight of the experimental group)/mean tumor weight of the control group.\nFIG. 15 was the results of tumor inhibition after irradiation treatment. The ICG group was administered twice, and the ICG/SN38 nanoparticle group was administered once. Irradiation was carried out 4 hours after administration (808 nm laser, intensity 1 W/cm^2, irradiation for 2 minutes). […]"}, "BCap37 cells [2]": {"test_system": "BCap37 cells", "assay": "photothermal therapy effect at the cellular level", "assay_type": "cell-based, human", "settings": "3 h incubation, 808 nm laser 5 min, 1 W/cm^2", "description": "The endocytosis experiment was carried out with the indocyanine green complex formulations prepared in embodiments 1 and 2 of the present invention, and the free ICG was used as a control. The procedures were as follows:\nThe experiment was divided into ICG/SN38 group, ICG/PTX group and ICG group. The BCap37 cells on the stage of logarithmic phase were evenly seeded in a 12-well plate at 1×10^5 cells/well. After 24 hours of incubation, the incubation medium was discarded, and the above formulations in 1 mL culture medium were added to the plate, respectively. After 3 hours of incubation, the incubation medium was discarded, and 1 mL of PBS was added. The three wells incubated with different formulations were then irradiated with 808 nm laser for 5 min (1 W/cm^2), and were photographed in real time by an infrared thermal camera, and the graphs of the temperature changes of each group were recorded."}, "cells": {"test_system": "cells", "assay": "cellular uptake by laser confocal microscopy", "assay_type": "cell-based", "settings": "2 hours after drug applied", "description": "In order to judge the rate of cellular uptake of drug from the nano formulation, as well as the therapeutic effect of the drug, the laser confocal microscopy microscope was used to observe the distribution of the drug in the cells 2 hours after drug applied. […] Therefore, the largest amount of ICG could enter into the cell to exert best therapeutic effect in the nano drug-loading system."}, "[3]": {"test_system": "BCap37 human breast cancer cell line tumor", "assay": "in vivo fluorescence imaging in tumor-bearing nude mice", "settings": "3 hours after administration, FIG. 13", "text": "Therefore, these two nanoparticle formulations were further selected for in vivo fluorescence imaging in tumor-bearing nude mice, in comparison with small molecule ICG. The tumor was located 2 cm below the right armpit of the mouse, derived from BCap37 human breast cancer cell line."}, "BCap37 cells [4]": {"test_system": "BCap37 cells", "assay": "MTT cytotoxicity test with and without irradiation", "assay_type": "cell-based, human", "description": "FIG. 9 is a graph showing a cytotoxicity test of ICG and the complex formulation thereof on BCap37 cells. (I1S2 is a nanoparticle formed by ICG and SN38 with a molar ratio of 1:2; and I1P1 is an aqueous solution drug of the complex formed by ICG and Paclitaxel with a molar ratio of 1:1. The drugs were applied for 24 hours and then washed off, followed by incubation for 24 hours after irradiation and non-irradiation treatment, respectively.)\n200 μL of cell suspension at the density of 4000 cells/well was uniformly added to a 96-well plate. After 24 hours of incubation, ICG, ICG/SN38 (I1S2) nanoparticles, ICG/PTX (I1P1) complex solution and ICG/CCM (I1C2) complex solution were added at different concentration points. Two identical plates were incubated in dark for 3 hours, and then culture medium was removed and washed three times with PBS, followed by addition of fresh medium. The irradiation group was further dark-incubated after 30 minutes of irradiation under a fluorescent lamp, and the other cell culture plate was dark-incubated all long as a light-proof control group. After 48 hours of incubation, culture plates were centrifuged at 900 rpm, and culture medium was carefully removed. The plates were added the medium containing 0.75 mg/mL MIT dark-incubated for 3 hours, centrifuged at 3500 rpm. After carefully removing the culture solution, the plates were added 100 μL of DMSO to each well, and shaked for 5 minutes to completely dissolve the purple solids. The absorbance (OD) value was recorded on a microplate reader. The test of each drug concentration point was repeated 3 times."}, "[5]": {"assay": "plasma clearance test on mice", "assay_type": "in vivo", "description": "To determine the appropriate drug ratio of ICG/SN38 nanoparticles for animal experiments, a series of ICG/SN38 nanoparticles: I2S1, I1S1, I1S2, I1S5 and I1S10 were prepared, and the average particle size thereof was 130 nm, 55 nm, 36 nm, 30 nm and 26 nm, respectively. The plasma clearance rate of the nanoparticles was measured based on the content of SN38 (10 mg/kg).\nIn addition, the plasma clearance rates of small molecule ICG, ICG/PTX solutions, and ICG/SN38 nanoparticles were compared."}}}
{"smiles": "CC1(C)C(/C=C/C=C/C=C/C=C2\\N(CCCCS(=O)(=O)[O-])c3ccc4ccccc4c3C2(C)C)=[N+](CCCCS(=O)(=O)[O-])c2ccc3ccccc3c21.[Na+]", "note": "[ICG, indocyanine green]", "values": [{"measurement": "anti-tumor effect", "setting": "[1]; irradiation 4 hours after administration, 808 nm, 1 W/cm^2, 2 minutes", "value": "residual tumors were still present and recurred rapidly after the end of treatment"}, {"measurement": "anti-tumor effect", "setting": "[1]; non-irradiation, ICG 10 mg/kg tail vein, every other day for 2 times", "value": "no anti-tumor effect at all"}, {"measurement": "cell temperature change", "setting": "BCap37 cells [2]", "value": "no significant temperature changes"}, {"measurement": "cellular uptake / intracellular distribution", "setting": "cells", "value": "difficult to enter the cell"}, {"measurement": "in vivo distribution by fluorescence", "setting": "[3]", "value": "the majority of ICG from the small molecule ICG group were cleared by the body"}, {"measurement": "IC50", "setting": "BCap37 cells [4]; Homo sapiens, Bcap37, light or radiation study, with light irradiation", "value": "~13.5", "unit": "µM"}, {"measurement": "cell death", "setting": "BCap37 cells [4]; ICG 20 μM, after irradiation", "value": "death of all the cells"}, {"measurement": "toxicity to the cells", "setting": "BCap37 cells [4]; in the absence of light", "value": "not toxic"}, {"measurement": "ICG in plasma", "setting": "[5]; after 1 hour", "value": "nearly not detectable"}, {"measurement": "plasma clearance", "setting": "[5]; mice, FIG. 11", "value": "extremely fast"}, {"measurement": "concentration at 3 min", "setting": "[5]; mouse, plasma, other: injection (site not specified), three minutes after injecting", "value": "< 1000", "unit": "ng/mL"}]}
